Measurements reported in patent US20200377496A1, “INDOLE AND BENZIMIDAZOLE DERIVATIVES AS DUAL 5-HT2A and 5-HT6 RECEPTOR ANTAGONISTS” (ADAMED PHARMA, S.A., priority 2018, published 2020).
Read-outs that look alike come from different tables or passages of the source.

What was measured:
[1] = target: human 5-HT2A receptor (Homo sapiens, UniProt P28223); assay: 5-HT2A receptor binding assay ([3H]-ketanserin radioligand)
Protocol: (§1) Preparation of Solutions of Test and Reference Compounds.
(§2) 1 mM stock solutions of tested compounds were prepared in DMSO. Serial dilutions of compounds were prepared in 96-well microplate in assay buffers using automated pipetting system epMotion 5070 (Eppendorf). Each compound was tested in 10 concentrations from 1.0E-6 to 1.0E-11 M (final concentration).
5-HT2A Receptor Binding Assay.
Radioligand binding was performed using membranes from CHO K1 cells stably transfected with the human 5-HT2A receptor (PerkinElmer). All assays were carried out in duplicates. 50 μl working solution of the tested compounds, 50 μl [3H]-ketanserin (final concentration 1 nM) and 150 μl diluted membranes (7 μg protein per well) prepared in assay buffer (50 mM Tris, pH 7.4, 4 mM CaCl2, 0.1% ascorbic acid) were transferred to polypropylene 96-well microplate using 96-wells pipetting station Rainin Liquidator (MettlerToledo). Mianserin (10 μM) was used to define nonspecific binding. Microplate was covered with a sealing tape, mixed and incubated for 60 minutes at 27° C. The reaction was terminated by rapid filtration through GF/B filter mate presoaked with 0.5% polyethyleneimine for 30 minutes. Ten rapid washes with 200 μl 50 mM Tris buffer (4° C., pH 7.4) were performed using automated harvester system Harvester-96 MACH III FM (Tomtec). The filter mates were dried at 37° C. in forced air fan incubator and then solid scintilator MeltiLex was melted on filter mates at 90° C. for 5 minutes. Radioactivity was counted in MicroBeta2 scintillation counter (PerkinElmer). Data were fitted to a one-site curve-fitting equation with Prism 6 (GraphPad Software) and Ki values were estimated from the Cheng-Prusoff equation.

[2] = target: 5-HT6 receptors (Homo sapiens, UniProt P50406); assay: 5-HT6 receptor binding assay ([3H]-LSD radioligand); conditions: membranes from CHO-K1 cells with human 5-HT6 receptor, [3H]-LSD 1 nM
5-HT6 receptors, sequence (P50406 whole entry): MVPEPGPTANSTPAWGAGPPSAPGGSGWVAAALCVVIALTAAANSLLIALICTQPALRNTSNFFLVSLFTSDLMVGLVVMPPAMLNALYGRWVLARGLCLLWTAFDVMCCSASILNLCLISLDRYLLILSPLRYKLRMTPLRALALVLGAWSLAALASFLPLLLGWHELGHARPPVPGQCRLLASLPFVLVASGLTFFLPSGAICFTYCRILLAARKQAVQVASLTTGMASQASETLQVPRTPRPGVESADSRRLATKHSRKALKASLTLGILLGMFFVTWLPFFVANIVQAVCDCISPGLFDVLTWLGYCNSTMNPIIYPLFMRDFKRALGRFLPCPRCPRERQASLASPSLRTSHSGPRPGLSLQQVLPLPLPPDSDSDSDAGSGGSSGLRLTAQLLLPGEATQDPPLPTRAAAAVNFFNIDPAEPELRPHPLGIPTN
Protocol: as §1, §2
5-HT6 Receptor Binding Assay.
Radioligand binding was performed using membranes from CHO-K1 cells stably transfected with the human 5-HT6 receptor (PerkinElmer). All assays were carried out in duplicates. 50 μl working solution of the tested compounds, 50 μl [3H]-LSD (final concentration 1 nM) and 150 μl diluted membranes (8 μg protein per well) prepared in assay buffer (50 mM Tris, pH 7.4, 10 mM MgCl2, 0.1 mM EDTA) were transferred to polypropylene 96 well microplate using 96-wells pipetting station Rainin Liquidator (MettlerToledo). Methiothepin (10 μM) was used to define nonspecific binding. Microplate was covered with a sealing tape, mixed and incubated for 60 minutes at 37° C. The reaction was terminated by rapid filtration through GF/A filter mate presoaked with 0.5% polyethyleneimine for 30 minutes. Ten rapid washes with 200 μl 50 mM Tris buffer (4° C., pH 7.4) were performed using automated harvester system Harvester-96 MACH III FM (Tomtec). The filter mates were dried at 37° C. in forced air fan incubator and then solid scintilator MeltiLex was melted on filter mates at 90° C. for 5 minutes. Radioactivity was counted in MicroBeta2 scintillation counter (PerkinElmer). Data were fitted to a one-site curve-fitting equation with Prism 6 (GraphPad Software) and Ki values were estimated from the Cheng-Prusoff equation.

[3] = target: human GPCR 5-HT2A (Homo sapiens, UniProt P28223); assay: Cellular aequorin-based functional assay, 5-HT2A; assay type: cell-based; conditions: for 5-HT2A AGO EC50 [nM]: agonist mode, CHO-K1 aequorin cells
human GPCR 5-HT2A, sequence (P28223 whole entry): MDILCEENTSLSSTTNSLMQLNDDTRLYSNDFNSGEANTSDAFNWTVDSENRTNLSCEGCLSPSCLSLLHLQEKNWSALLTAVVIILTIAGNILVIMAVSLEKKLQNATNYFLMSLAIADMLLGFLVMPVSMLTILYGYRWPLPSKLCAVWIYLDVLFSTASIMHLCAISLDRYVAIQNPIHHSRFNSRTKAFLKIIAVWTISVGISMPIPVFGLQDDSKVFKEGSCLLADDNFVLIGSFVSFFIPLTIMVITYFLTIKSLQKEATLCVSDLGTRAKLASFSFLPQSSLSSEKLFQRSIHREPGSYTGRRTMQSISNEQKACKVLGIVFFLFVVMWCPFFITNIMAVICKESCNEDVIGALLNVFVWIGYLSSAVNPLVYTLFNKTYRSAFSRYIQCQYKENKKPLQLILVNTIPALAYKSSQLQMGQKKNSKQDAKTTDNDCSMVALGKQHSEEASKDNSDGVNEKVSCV
Protocol: as §1
(§3) 1 mM stock solutions of the tested compounds were prepared in DMSO. Serial dilutions were prepared in 96-well microplate in assay buffers using automated pipetting system epMotion 5070 (Eppendorf). Two independent experiments in duplicates were performed and 6 to 10 concentrations were tested.
(§4) 5-HT2A and 5-HT6 Functional Activity Assays.
(§5) Cellular aequorin-based functional assays were performed with γ-irradiated recombinant CHO-K1 cells expressing mitochondrially-targeted Aequorin, human GPCR (5-HT2A or 5-HT6) and the promiscuous G protein α16 (PerkinElemer). Assays were performed according to the standard protocol provided by the manufacturer. After thawing, cells were transferred to assay buffer (DMEM/HAM's F12 with 0.1% protease-free BSA) and centrifuged. Cell pellet was resuspended in assay buffer and coelenterazine h was added at final concentrations of 5 μM. Cell suspension was incubated at 21° C., protected from light with constant agitation, for 4 hours and then diluted with assay buffer to a concentration of 250,000 cells/ml. After 1 hour incubation 50 yl cell suspension was dispensed using automatic injectors built in radiometric and luminescence plate counter MicroBeta2 LumiJET (PerkinElmer, USA) into white opaque 96-well microplate preloaded with tested compounds. Immediate light emission generated following calcium mobilization was recorded for 30-60 seconds. In antagonist mode, after 15-30 minutes incubation reference agonist was added to the above assay mix and light emission was recorded again. Final concentration of reference agonist was equal EC80: serotonin 40 nM for 5-HT6 receptor and α-methylserotonin 30 nM for 5-HT2A receptor. The assays were performed in the agonist mode (5-HT6 AGO and 5-HT2A AGO) as well as antagonist mode (5-HT6 ANT and 5-HT2A ANT).
(§6) IC50 and EC50 were determined by non-linear regression analysis using GraphPad Prism 6.0 software. The log IC50 was used to obtain the Kb by applying the Cheng-Prusoff approximation.

[4] = target: human GPCR 5-HT6 (Homo sapiens, UniProt P50406); assay: Cellular aequorin-based functional assay, 5-HT6; assay type: cell-based; conditions: for 5-HT6 AGO EC50 [nM]: agonist mode, CHO-K1 aequorin cells; for Kb: antagonist mode, reference agonist serotonin 40 nM (EC80), read-out: 5-HT6 ANT Kb
human GPCR 5-HT6, sequence (P50406 whole entry): as the sequence (P50406 whole entry) above
Protocol: as §1, §3, §4, §5, §6

[5] = membranes from CHO K1 cells with human 5-HT2A receptor, [3H]-ketanserin 1 nM, read-out: 5-HT2A Ki
[6] = antagonist mode, reference agonist α-methylserotonin 30 nM (EC80), read-out: 5-HT2A ANT Kb

human 5-HT2A receptor, sequence (P28223 whole entry): as the sequence (P28223 whole entry) above

Row | Structure (SMILES) | Ki [1, 5] | Ki [2] | 5-HT2A AGO EC50 [nM] [3] | Kb [3, 6] | 5-HT6 AGO EC50 [nM] [4] | Kb [4] | Ki [1] | Kb [3]
1 | CN1CCN(c2cccc3c2nc(C(F)(F)F)n3Cc2ccccc2)CC1 [Compound 2, 1-benzyl-4-(4-methylpiperazin-1-yl)-2-(trifluoromethyl)-1H-benzimidazole] | 3.1 nM | 2.2 nM | – | – | – | – | – | –
2 | FC(F)(F)c1nc2c(N3CCNCC3)cccc2n1Cc1cccc(Cl)c1 [Compound 6, 1-(3-chlorobenzyl)-4-(piperazin-1-yl)-2-(trifluoromethyl)-1H-benzimidazole] | 3.8 nM | 1.7 nM | – | – | – | – | – | –
3 | Fc1cccc(Cn2c(C(F)(F)F)nc3c(N4CCNCC4)cccc32)c1 [Compound 7, 1-(3-fluorobenzyl)-4-(piperazin-1-yl)-2-(trifluoromethyl)-1H-benzimidazole] | 2.9 nM | 1.6 nM | N.C. | 22 nM | N.C. | 1.9 nM | – | –
4 | FC(F)(F)c1nc2c(N3CCNCC3)cccc2n1Cc1ccc(Cl)c(Cl)c1 [Compound 8, 1-(3,4-dichlorobenzyl)-4-(piperazin-1-yl)-2-(trifluoromethyl)-1H-benzo[d]imidazole] | 2.9 nM | 2 nM | – | – | – | – | – | –
5 | FC(F)(F)c1cc2c(N3CCNCC3)cccc2n1Cc1ccccc1 [Compound 12, 1-benzyl-4-(piperazin-1-yl)-2-(trifluoromethyl)-1H-indole] | – | 0.29 nM | N.C. | – | N.C. | 0.49 nM | 2.1 nM | 31 nM
6 | CN1CCN(c2cccc3c2cc(C(F)(F)F)n3Cc2ccc(Cl)c(Cl)c2)CC1 [Compound 13, 1-(3,4-dichlorobenzyl)-4-(4-methylpiperazin-1-yl)-2-(trifluoromethyl)-1H-indole] | 2.6 nM | 0.98 nM | N.C. | – | N.C. | 9.1 nM | – | –
7 | CN1CCN(c2cccc3c2cc(C(F)(F)F)n3Cc2ccc(Cl)c(F)c2)CC1 [Compound 14, 1-(4-chloro-3-fluorobenzyl)-4-(4-methylpiperazin-1-yl)-2-(trifluoromethyl)-1H-indole] | 0.39 nM | 0.65 nM | N.C. | 59 nM | N.C. | 5.5 nM | – | –
8 | Fc1cc(Cn2c(C(F)(F)F)cc3c(N4CCNCC4)cccc32)ccc1Cl [Compound 16, 1-(4-chloro-3-fluorobenzyl)-4-(piperazin-1-yl)-2-(trifluoromethyl)-1H-indole] | 0.82 nM | 0.62 nM | N.C. | 55 nM | N.C. | 4.4 nM | – | –
9 | COc1cccc(Cn2c(C(F)(F)F)cc3c(N4CCN(C)CC4)cccc32)c1 [Compound 18, 1-(3-methoxybenzyl)-4-(4-methylpiperazin-1-yl)-2-(trifluoromethyl)-1H-indole] | 4.2 nM | 0.27 nM | – | – | – | – | – | –
10 | Fc1cccc(Cn2c(C(F)(F)F)cc3c(N4CCNCC4)cccc32)c1 [Compound 19, 1-(3-fluorobenzyl)-4-(piperazin-1-yl)-2-(trifluoromethyl)-1H-indole] | – | 0.35 nM | N.C. | – | N.C. | 0.14 nM | 1.3 nM | 21 nM
11 | FC(F)(F)c1cc2c(N3CCNCC3)cccc2n1Cc1cccc(Cl)c1 [Compound 20, 1-(3-chloroobenzyl)-4-(piperazin-1-yl)-2-(trifluoromethyl)-1H-indole] | – | – | N.C. | – | N.C. | 1.2 nM | 2.2 nM | 53 nM
12 | CN1CCN(c2cccc3c2cc(C(F)(F)F)n3Cc2ccco2)CC1 [Compound 21, 1-(furan-2-ylmethyl)-4-(4-methylpiperazin-1-yl)-2-(trifluoromethyl)-1H-indole] | – | 0.18 nM | N.C. | 4.3 nM | N.C. | 0.27 nM | – | –
13 | CN1CCN(c2cccc3c2cc(C(F)(F)F)n3Cc2ccc(F)c(F)c2)CC1 [Compound 22, 1-(3,4-difluorobenzyl)-4-(4-methylpiperazin-1-yl)-2-(trifluoromethyl)-1H-indole] | 0.45 nM | – | N.C. | 26 nM | N.C. | 4.8 nM | – | –
14 | COc1cccc(Cn2c(C(F)(F)F)cc3c(N4CCNCC4)cccc32)c1 [Compound 23, 1-(3-methoxybenzyl)-4-(piperazin-1-yl)-2-(trifluoromethyl)-1H-indole] | – | – | N.C. | 28 nM | N.C. | 0.26 nM | – | –
15 | CN1CCN(c2cccc3c2cc(C(F)(F)F)n3Cc2cccc(F)c2)CC1 [Compound 24, 1-[(3-fluorophenyl)methyl]-4-(4-methylpiperazin-1-yl)-2-(trifluoromethyl)-1H-indole] | 0.73 nM | 0.092 nM | N.C. | 28 nM | N.C. | 1.1 nM | – | –
16 | Fc1ccc(Cn2c(C(F)(F)F)cc3c(N4CCNCC4)cccc32)cc1F [Compound 25, 1-(3,4-difluorobenzyl)-4-(piperazin-1-yl)-2-(trifluoromethyl)-1H-indole] | 0.71 nM | 0.37 nM | N.C. | 20 nM | N.C. | 0.65 nM | – | –
17 | CN1CCN(c2cccc3c2cc(C(F)(F)F)n3Cc2ccccc2)CC1 [Compound 26, 1-benzyl-4-(4-methylpiperazin-1-yl)-2-(trifluoromethyl)-1H-indole] | 0.91 nM | 0.087 nM | – | – | – | – | – | –
18 | CN1CCN(c2cccc3c2cc(C(F)(F)F)n3Cc2cccc(Cl)c2)CC1 [Compound 27, 1-(3-chlorobenzyl)-4-(4-methylpiperazin-1-yl)-2-(trifluoromethyl)-1H-indole] | – | – | N.C. | 56 nM | N.C. | 0.31 nM | – | –
19 | Cc1ccc(Cn2c(C(F)(F)F)cc3c(N4CCNCC4)cccc32)o1 [Compound 28, 1-[(5-methylfuran-2-yl)methyl]-4-(piperazin-1-yl)-2-(trifluoromethyl)-1H-indole] | – | 4 nM | N.C. | – | N.C. | 0.25 nM | 0.48 nM | 16 nM
